Results published in PMC11284088, “Synthesis and biochemical characterization of naphthoquinone derivatives targeting bacterial histidine kinases” (The Journal of Antibiotics, 2024).
“Also recorded” adds a separate entry of the source.

Tests used:
[1] = biological target: T1, CpxA (Escherichia coli, UniProt P0AE82); assay: Inhibition of CpxA autophosphorylation; format: biochemical, Escherichia coli K12; conditions: CpxA; 1 µM HK, 40 µM ATP; read-out: IC50
T1 construct: cytoplasmic regions of PhoQ (261-486) and CpxA (188-457); His6 (C); made in house; host or cells: E. coli BL21(DE3)
Method: (§1) The total reaction volume was 40 µl, and the incubation lasted for 30 min at 25 °C. To terminate the reaction, 40 µl of 2 × SDS-PAGE sample buffer was added, followed by a 10-min incubation at 37 °C. Subsequently, SDS-PAGE (10% acrylamide) was performed, and the samples were subjected to Western blotting using a PVDF membrane (Bio-Rad 1620177). The primary antibody used was anti-N3-phosphohistidine antibody (clone SC56-2) (EDM Millipore Corp), and the secondary antibody was goat anti-rabbit IgG-HRP (Abcam). A 2% bovine serum albumin (Sigma-Aldrich) solution served as the blocking reagent. Signals originating from phosphorylated HKs were detected using the HRP substrate (Immobilon Western Chemiluminescent HRP substrate, Millipore) and the Multi Imager II Multi Box (Bio Tools). Signal intensities were quantified with Image Analysis Software CS Analyzer 4 (ATTO). IC50 values (50% inhibitory concentrations) were determined using Prism 7 software (GraphPad).
In the assessment of naphthoquinone derivatives, the initial screening for inhibitory activity against WalK autophosphorylation was conducted at 50 or 100 µg ml^−1. Compounds displaying inhibitory activity were further examined to ascertain their IC50 values against WalK. For the chosen compounds, inhibition against EvgS, EnvZ, PhoQ, and CpxA HKs was also assessed. […]

[2] = biological target: T2, WalK (207-611, B. subtilis) (Bacillus subtilis, UniProt Q45614); assay: Affinity selection/mass spectrometry, competition with waldiomycin; format: binding; parameters: key to AS/MS: AS/MS + competitive inhibition of the binding of waldiomycin to WalK; − increased binding of waldiomycin to WalK; conditions: for increase of MS signal of the collected waldiomycin compared to only waldiomycin: compound 30 or 100 µM; for AS/MS: summary class, effect on binding of waldiomycin to WalK
T2 construct: His6 (N); made in house; host or cells: E. coli BL21(DE3)
Method: The affinity selection/mass spectrometry (AS/MS) is a method which can detect the binding of small compounds to proteins. This experiment was carried out following a previously established protocol (Fig. 5), with the exception of using Millipore 96-well filter plates (MSBVN1210) instead of MAHAN4510. In the experiment, 1 µM of WalK (207-611, B. subtilis, refer to Table S2) was combined and incubated with 5 µM of waldiomycin and competitor compounds in a reaction buffer. The buffer composition was as follows: 25 mM Tris-HCl (pH 8.0), 50 mM KCl, 50 mM NH4Cl, 5 mM MgCl2, 1 mM DTT, and 0.1% CHAPS. Following the incubation, the mixture was subjected to size-exclusion chromatography via centrifugation to eliminate free compounds. The protein that was eluted was then denatured by adding an equal volume of methanol/0.1% formic acid. The compounds that were subsequently released from the protein were detected using an LC/MS system. The concentrations of waldiomycin were calculated from the value of peak areas using calibration curve that covered the range of 1 nM to 1 µM (R^2 = 0.9991). The concentration of waldiomycin in the eluate of WalK and waldiomycin without competitor was 10.1 nM, and percentages to this value were calculated for other samples.

[3] = tested on: iseA (formerly yoeB); assay: RT-qPCR of iseA expression in B. subtilis cells; format: cell-based, B. subtilis 168; parameters: key to RT-qPCR: RT-qPCR + iseA gene expression was induced in B. subtilis 168; − no effect; conditions: for expression of iseA: exponentially growing cells, subMIC or MIC levels, 5 min, relative to DMSO control; for RT-qPCR: summary class, iseA gene expression in B. subtilis 168
Method: In brief, the cells were aerated and grown to an optical density at 660 nm of 0.3–0.4 at 37 °C. After the addition of DMSO or naphthoquinone derivatives, the cultures were further incubated for 5 min, cooled on ice for 1 min, and then harvested by centrifugation (2300 × g, 10 min, 4 °C). The cells were resuspended in 800 µl of RNA Lysis Buffer (SV Total RNA Isolation System, Z3100, Promega), transferred to a screw-capped tube containing 400 mg of glass beads (GB-01, TOMY), and disrupted using MicroSmash (MS-100, TOMY Medico) at 3000 rpm, 60 s ON/OFF for 6 cycles. RNA was then purified from 175 µl of the supernatant using the SV Total RNA Isolation System, followed by DNase I treatment (Turbo DNA-free^TM Kit, AM1907, Invitrogen) to remove any residual genomic DNA contamination. […] The expression levels of the genes were normalized using the 16S rRNA gene as an internal standard. Each assay was performed at least three times. Statistical analyses were conducted using Tukey’s multiple comparison test (GraphPad Prism 7).

[4] = tested on: HKs (EvgS, EnvZ, PhoQ, and CpxA); assay: Inhibition of class I HKs, summary over several HKs; format: biochemical, Escherichia coli K12; parameters: key to HKs: HKs + inhibitory effect against HKs (EvgS, EnvZ, PhoQ, and CpxA); conditions: for inhibition of EvgS, EnvZ, PhoQ, and CpxA: in words; for HKs: summary class, EvgS, EnvZ, PhoQ, and CpxA
Method: as §1, with “Autophosphorylation of WalK was conducted at 0.5 or 1 µM in a reaction mixture comprising 50 mM Tris-HCl (pH 8.5), 100 mM KCl, 5 mM MgCl2, 100 mM NH4Cl, 5% DMSO, and 40 µM ATP. The total” for “The total”
In the assessment of naphthoquinone derivatives, the initial screening for inhibitory activity against WalK autophosphorylation was conducted at 50 or 100 µg ml^−1. Compounds displaying inhibitory activity were further examined to ascertain their IC50 values against WalK. For the chosen compounds, inhibition against EvgS, EnvZ, PhoQ, and CpxA HKs was also assessed. These reactions involved the use of 1 µM HK, 40 µM ATP, and a 30 min incubation at 25 °C.

T1 sequence (P0AE82 188-457): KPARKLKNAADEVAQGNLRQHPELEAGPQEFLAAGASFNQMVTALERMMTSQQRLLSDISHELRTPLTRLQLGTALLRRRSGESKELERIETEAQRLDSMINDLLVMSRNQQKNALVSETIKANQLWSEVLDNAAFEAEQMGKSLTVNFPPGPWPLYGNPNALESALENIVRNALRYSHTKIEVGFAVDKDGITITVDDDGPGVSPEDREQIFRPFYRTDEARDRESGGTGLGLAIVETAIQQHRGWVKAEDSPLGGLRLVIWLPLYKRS
T2 sequence (Q45614 207-611): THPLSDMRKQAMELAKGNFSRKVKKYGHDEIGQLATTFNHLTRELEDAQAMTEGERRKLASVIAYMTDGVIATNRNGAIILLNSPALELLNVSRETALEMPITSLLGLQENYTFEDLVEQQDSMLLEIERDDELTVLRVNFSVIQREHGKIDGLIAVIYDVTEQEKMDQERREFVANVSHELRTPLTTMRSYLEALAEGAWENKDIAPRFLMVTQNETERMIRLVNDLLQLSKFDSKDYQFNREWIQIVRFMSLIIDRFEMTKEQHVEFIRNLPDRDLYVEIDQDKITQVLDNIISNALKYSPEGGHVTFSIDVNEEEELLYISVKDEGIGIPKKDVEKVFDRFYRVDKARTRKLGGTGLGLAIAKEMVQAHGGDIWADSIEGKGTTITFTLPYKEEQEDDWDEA

SMILES | IC50 [1] | increase of MS signal of the collected waldiomycin compared to only waldiomycin ([2]; waldiomycin 5 µM, WalK 1 µM) | binding to WalK competitive with that of waldiomycin ([2]; in words) | AS/MS [2] | expression of iseA [3] | RT-qPCR [3] | inhibition of EvgS, EnvZ, PhoQ, and CpxA [4] | HKs [4] | effect on the signal of waldiomycin ([2]; compound 30 and 100 µM, in words) | signal of waldiomycin compared to only waldiomycin with WalK ([2]; compound at 100 µM, waldiomycin 5 µM, WalK 1 µM)
O=C1C(Cl)=C(Nc2ccc(Cl)c(O)c2)C(=O)c2c(O)ccc(O)c21 [2h, 2-chloro-3-((4-chloro-3-hydroxyphenyl)amino)-5,8-dihydroxynaphthalene-1,4-dione] | 19.5 µM | about twofold | not competitive; also recorded: enhanced the binding of waldiomycin to WalK | − | significantly increased; also recorded: significantly induced iseA gene expression | + | inhibited all four of these HKs | + |  | 
Cc1noc2c1C(=O)c1c(O)ccc(O)c1C2=O [3b, 5,8-dihydroxy-3-methylnaphtho[2,3-d]isoxazole-4,9-dione] | 104 µM |  | competitive; also recorded: competitively interacted with waldiomycin | + | significantly increased; also recorded: significantly induced iseA gene expression | + | inhibited all four of these HKs | + | reduced the signal of waldiomycin in a dose-dependent manner | about 10%
CC(C)(C)OC(=O)Nc1cccc(NC2=C(Cl)C(=O)c3c(O)ccc(O)c3C2=O)c1 [2l, tert-butyl (3-((3-chloro-5,8-dihydroxy-1,4-dioxo-1,4-dihydronaphthalen-2-yl)amino)phenyl)carbamate] | 32.7 µM | about twofold | not competitive; also recorded: enhanced the binding of waldiomycin to WalK | − | significantly increased; also recorded: significantly induced iseA gene expression | + | inhibited all four of these HKs | + |  | 
